US11066396B2 (priority 2016, dated 2021)

These molecules were tested against HDAC1 (Homo sapiens (Human), UniProt Q13547). Details: read-out: HDAC1 IC50.
HDAC1, sequence (Q13547 whole entry): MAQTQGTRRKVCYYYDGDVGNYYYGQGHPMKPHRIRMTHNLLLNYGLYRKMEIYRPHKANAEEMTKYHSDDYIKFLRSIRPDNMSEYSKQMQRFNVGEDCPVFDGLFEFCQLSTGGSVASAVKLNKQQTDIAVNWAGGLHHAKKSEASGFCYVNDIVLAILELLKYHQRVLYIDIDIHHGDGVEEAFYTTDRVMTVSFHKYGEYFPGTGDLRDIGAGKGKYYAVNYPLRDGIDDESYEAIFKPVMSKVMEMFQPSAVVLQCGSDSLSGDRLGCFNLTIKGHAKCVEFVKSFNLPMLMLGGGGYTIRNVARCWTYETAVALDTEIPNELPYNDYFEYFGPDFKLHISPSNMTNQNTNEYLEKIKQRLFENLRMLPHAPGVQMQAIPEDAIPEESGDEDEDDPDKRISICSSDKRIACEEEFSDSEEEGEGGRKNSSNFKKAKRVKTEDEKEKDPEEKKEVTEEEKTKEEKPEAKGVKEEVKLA

SMILES | IC50
FC(F)(F)c1nc(-c2ccnc(OCc3ccnn3-c3cccnc3)c2)no1 [Example 212, 2-[(1-pyridin-3-yl-1H-pyrazol-5-yl)methoxy]-4-[5-(trifluoromethyl)-1,2,4-oxadiazol-3-yl]pyridine] | 1.9 µM
Cc1ccc2c3c(nn2c1)CCC(NCc1ccc(-c2noc(C(F)(F)F)n2)cc1)C3 (racemic) [Example 355, 8-methyl-N-({4-[5-(trifluoromethyl)-1,2,4-oxadiazol-3-yl]phenyl}methyl)-1,2,3,4-tetrahydropyrido[1,2-b]indazol-2-amine] | 0.048 µM
FC(F)(F)c1nc(-c2ccnc(OCc3cncc(Cl)n3)c2)no1 [Example 215, 2-chloro-6-[({4-[5-(trifluoromethyl)-1,2,4-oxadiazol-3-yl]pyridin-2-yl}oxy)methyl]pyrazine] | 1.2 µM
FC(F)Cn1nc(COc2cc(-c3noc(C(F)(F)F)n3)ccn2)cc1C1CC1 [Example 218, 2-{[5-cyclopropyl-1-(2,2-difluoroethyl)-1H-pyrazol-3-yl]methoxy}-4-[5-(trifluoromethyl)-1,2,4-oxadiazol-3-yl]pyridine] | 0.87 µM
Cc1cc(C)nc(COc2cc(-c3noc(C(F)(F)F)n3)ccn2)c1 [Example 211, 2,4-dimethyl-6-[({4-[5-(trifluoromethyl)-1,2,4-oxadiazol-3-yl]pyridin-2-yl}oxy)methyl]pyridine] | 2.5 µM
FC(F)(F)c1nc(-c2ccnc(OCc3c(Cl)nc4sccn34)c2)no1 [Example 208, 6-chloro-5-[({4-[5-(trifluoromethyl)-1,2,4-oxadiazol-3-yl]pyridin-2-yl}oxy)methyl]imidazo[2,1-b][1,3]thiazole] | 3.1 µM
Cc1nc2cc(F)ccc2n1Cc1ccc(-c2noc(C(F)(F)F)n2)cn1 [Example 466, 5-fluoro-2-methyl-1-({5-[5-(trifluoromethyl)-1,2,4-oxadiazol-3-yl]pyridin-2-yl}methyl)-1H-benzimidazole] | 0.84 µM
Cc1cc(COc2cc(-c3noc(C(F)(F)F)n3)ccn2)nn1CC(F)F [Example 220, 2-{[1-(2,2-difluoroethyl)-5-methyl-1H-pyrazol-3-yl]methoxy}-4-[5-(trifluoromethyl)-1,2,4-oxadiazol-3-yl]pyridine] | 1.2 µM
FC(F)(F)c1nc(-c2ccc(CNc3cccc(-n4cncn4)c3)nc2)no1 [Example 364, 3-(1H-1,2,4-triazol-1-yl)-N-({5-[5-(trifluoromethyl)-1,2,4-oxadiazol-3-yl]pyridin-2-yl}methyl)aniline] | 0.06 µM
O=C1Nc2ccc(F)cc2C1Cc1ccc(-c2noc(C(F)(F)F)n2)cc1 (racemic) [Example 193, 5-fluoro-3-{4-[5-(trifluoromethyl)-1,2,4-oxadiazol-3-yl]benzyl}-1,3-dihydro-2H-indol-2-one] | 0.71 µM
Cc1noc([C@H]2CCCCN2c2ccc(-c3noc(C(F)(F)F)n3)c(Cl)c2)n1 [Example 18, (R)-3-(2-Chloro-4-(2-(3-methyl-1,2,4-oxadiazol-5-yl)piperidin-1-yl)phenyl)-5-(trifluoromethyl)-1,2,4-oxadiazole] | > 15 µM
FC(F)(F)c1nc(-c2ccnc(OCc3ncccc3Cl)c2)no1 [Example 217, 3-chloro-2-[({4-[5-(trifluoromethyl)-1,2,4-oxadiazol-3-yl]pyridin-2-yl}oxy)methyl]pyridine] | 3.8 µM
O=C1CCC(c2ccc(-c3noc(C(F)(F)F)n3)cc2)N1c1cccc(F)c1 (racemic) [Example 325, 1-(3-fluorophenyl)-5-{4-[5-(trifluoromethyl)-1,2,4-oxadiazol-3-yl]phenyl}pyrrolidin-2-one] | 2.5 µM
Fc1ccc2c(c1)N(Cc1ccc(-c3noc(C(F)(F)F)n3)cn1)CCO2 [Example 347, 6-fluoro-4-({5-[5-(trifluoromethyl)-1,2,4-oxadiazol-3-yl]pyridin-2-yl}methyl)-3,4-dihydro-2H-1,4-benzoxazine] | 0.6 µM
FC(F)(F)c1nc(-c2ccc(CNc3cccc(-c4cnco4)c3)nc2)no1 [Example 360, 3-(1,3-oxazol-5-yl)-N-({5-[5-(trifluoromethyl)-1,2,4-oxadiazol-3-yl]pyridin-2-yl}methyl)aniline] | 0.0076 µM
FC(F)(F)Cn1nc(COc2cc(-c3noc(C(F)(F)F)n3)ccn2)cc1C1CC1 [Example 219, 2-{[5-cyclopropyl-1-(2,2,2-trifluoroethyl)-1H-pyrazol-3-yl]methoxy}-4-[5-(trifluoromethyl)-1,2,4-oxadiazol-3-yl]pyridine] | 0.92 µM
Cn1nc(COc2cc(-c3noc(C(F)(F)F)n3)ccn2)cc1C(C)(C)C [Example 224, 2-[(5-tert-butyl-1-methyl-1H-pyrazol-3-yl)methoxy]-4-[5-(trifluoromethyl)-1,2,4-oxadiazol-3-yl]pyridine] | 1.2 µM
O=C(NCc1ccc(-c2noc(C(F)(F)F)n2)cc1)c1cc(N2CCOCC2)ccn1 [Example 204, 4-morpholin-4-yl-N-{4-[5-(trifluoromethyl)-1,2,4-oxadiazol-3-yl]benzyl}pyridine-2-carboxamide] | 1 µM
Cc1cnc(COc2cc(-c3noc(C(F)(F)F)n3)ccn2)cn1 [Example 213, 2-methyl-5-[({4-[5-(trifluoromethyl)-1,2,4-oxadiazol-3-yl]pyridin-2-yl}oxy)methyl]pyrazine] | 1.9 µM
O=C1CCc2ccc(F)cc2N1Cc1ccc(-c2noc(C(F)(F)F)n2)cn1 [Example 323, 7-fluoro-1-({5-[5-(trifluoromethyl)-1,2,4-oxadiazol-3-yl]pyridin-2-yl}methyl)-3,4-dihydroquinolin-2(1H)-one] | 0.053 µM
FC(F)(F)c1nc(-c2ccnc(OCc3cncc(N4CCNCC4)n3)c2)no1 [Example 216, 2-piperazin-1-yl-6-[({4-[5-(trifluoromethyl)-1,2,4-oxadiazol-3-yl]pyridin-2-yl}oxy)methyl]pyrazine] | 1.1 µM
CC(C)n1ccc(COc2cc(-c3noc(C(F)(F)F)n3)ccn2)n1 [Example 223, 2-{[1-(1-methylethyl)-1H-pyrazol-3-yl]methoxy}-4-[5-(trifluoromethyl)-1,2,4-oxadiazol-3-yl]pyridine] | 2.4 µM
FC(F)(F)c1nc(-c2ccnc(OCc3cc4n(n3)CCCO4)c2)no1 [Example 210, 2-[({4-[5-(trifluoromethyl)-1,2,4-oxadiazol-3-yl]pyridin-2-yl}oxy)methyl]-6,7-dihydro-5H-pyrazolo[5,1-b][1,3]oxazine] | 1.2 µM
O=C1c2cc(F)ccc2CCN1Cc1ccc(-c2noc(C(F)(F)F)n2)cn1 [Example 327, 7-fluoro-2-({5-[5-(trifluoromethyl)-1,2,4-oxadiazol-3-yl]pyridin-2-yl}methyl)-3,4-dihydroisoquinolin-1(2H)-one] | 0.64 µM
Cc1ccc2c3c(nn2c1)CCC(NCc1ccc(-c2noc(C(F)(F)F)n2)cc1)C3 (racemic) [Example 352, 8-methyl-N-({4-[5-(trifluoromethyl)-1,2,4-oxadiazol-3-yl]phenyl}methyl)-1,2,3,4-tetrahydropyrido[1,2-b]indazol-2-amine] | 0.044 µM
O=c1ccc2ccccc2n1Cc1ccc(-c2noc(C(F)(F)F)n2)cn1 [Example 460, 1-({5-[5-(trifluoromethyl)-1,2,4-oxadiazol-3-yl]pyridin-2-yl}methyl)quinolin-2(1H)-one] | 0.099 µM
